Earlier results on two molecules are cited in US20250000791A1, “OPHTHALMIC FORMULATION FOR PREVENTING AND/OR TREATING CATARACTS BY EYE DROP ADMINISTRATION” (CHENGDU RUIMU BIOPHARMACEUTICALS CO., LTD., priority 2021, published 2025).

For data set [1], the system named is crystallins. As to conditions: lens fragments of cataract patients; lanosterol 0.20 mM, 25-HC 0.25 and 0.50 mM, 37° C., 72 h.
The conditions of data set [2]: 0.5% LAN solution with 15% DMSO, 20% ethanol or polysorbate 80, injected into the vitreous body of rats.
For data set [3], the system named is cataract nucleus obtained after cataract extraction. As to conditions: 25 mM lanosterol solution, 6 days.
The subject of data set [4] is animal cataract model.

Each structure is given as a SMILES string. Like-named read-outs stand apart in the source and are kept apart here.

Regarding `C[C@H](CCCC(C)(C)O)[C@H]1CC[C@H]2[C@@H]3CC=C4C[C@@H](O)CC[C@]4(C)[C@H]3CC[C@]12C` [25-hydroxycholesterol], in data set [1], the “binding to crystallins / solving cataract” value is “did not find that lanosterol or 25-hydroxycholesterol can bind to crystallins”.

On to `CC(C)=CCC[C@@H](C)[C@H]1CC[C@@]2(C)C3=C(CC[C@]12C)[C@@]1(C)CC[C@H](O)C(C)(C)[C@@H]1CC3` [lanosterol], for which the solubility in water entry is reported as “low solubility in water”. Moreover, the “binding to crystallins / solving cataract” value in data set [1] is listed as “did not find that lanosterol or 25-hydroxycholesterol can bind to crystallins”. Also, in data set [2], the “effect on lens opacity” value is recorded as “poses a risk of promoting lens opacity” and the “effect on the vitreous body” value is “causes vitreous turbidness”. For the same molecule, the cataract clarity result in data set [3] is “no significant improvement in cataract clarity”. Moreover, the effect on cataract entry in data set [4] (administration by eye drops alone) is “cannot treat cataracts”. The effect on cataract result in data set [4] (nanoparticles into the vitreous cavity once every 3 days combined with 25 mM eye drops six times a week, 6 weeks) is reported as “the cataract disappeared”.
